System: SARS-CoV-2
Assay: microbe, parasite or virus in culture
Assay type: cell-based
Conditions: for EC50: Severe acute respiratory syndrome coronavirus 2, 72 h, read-out: 50% SARS-CoV-2 infected cell death inhibitory concentration (EC50), VeroE6/TMPRSS2 cells, SARS-CoV-2, 3 days culture, CellTiter-Glo 2.0; for coronavirus replication inhibitory activity: at concentrations up to 50 µM

Compound | EC50 | coronavirus replication inhibitory activity
Cc1nc2ccc(/N=c3\[nH]c(=O)n(C[C@H]4COC(C)(C)O4)c(=O)n3Cc3ccc(Cl)cc3)cc2s1 [Patent Document 1 Compound 1-1603] | > 50 µM | did not show coronavirus replication inhibitory activity
CC(C)Oc1ccc(/N=c2\[nH]c(=O)n(Cc3ncn[nH]3)c(=O)n2Cc2ccc(Cl)cc2)cc1F [Patent Document 1 Compound I-0679] | > 50 µM | did not show coronavirus replication inhibitory activity
COc1ncccc1Cn1c(=O)[nH]/c(=N\c2ccc(OC(C)C)c(F)c2)n(Cc2ccc(Cl)cc2)c1=O [Patent Document 1 Compound I-0683] | > 50 µM | did not show coronavirus replication inhibitory activity
CC(C)Oc1ccc(/N=c2\[nH]c(=O)n(Cc3ccc[nH]c3=O)c(=O)n2Cc2ccc(Cl)cc2)cc1F [Patent Document 1 Compound I-0685] | > 50 µM | did not show coronavirus replication inhibitory activity
O=C(O)c1ccc(Oc2ccc(/N=c3\[nH]c(=O)n(-c4cccs4)c(=O)n3Cc3ccc(Cl)cc3)cc2)nc1 [Patent Document 2 Compound I-575] | > 50 µM | did not show coronavirus replication inhibitory activity
O=C(O)c1ccc(Oc2ccc(/N=c3\[nH]c(=O)n(-c4ccon4)c(=O)n3Cc3ccc(Cl)cc3)cc2)nc1 [Patent Document 2 Compound I-580] | > 50 µM | did not show coronavirus replication inhibitory activity
Cc1ccc(Cn2c(=O)nc(Nc3cccc(C(F)(F)F)c3)n(Cc3ccc(Cl)c(Cl)c3)c2=O)cc1 [Patent Document 3 Compound 1-066] | > 50 µM | did not show coronavirus replication inhibitory activity

Reference: US11814368B2, “Triazine derivatives having virus replication inhibitory activity and pharmaceutical composition comprising the same” (priority 2021, dated 2023)
